Experimental data taken from patent US6737383B1, “Herbicidal oxadiazolidines” (priority 1999, dated 2004).

Legend:
Alexandergrass = assay: Test D Alexandergrass; type: in vivo, Brachiaria plantaginea; settings: Preemergence, 0 to 100 scale
How it was run: (§1)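 Weed seeds planted in sandy loam; species kept apart in individual pots or compartments. Preemergence tests: treatment to soil surface within one day. Greenhouse growth, then visual injury scoring at 14–21 days (0–100).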

common pursiane = assay: Test D common purslane; type: in vivo, Portulaca oleracea
How it was run: as §1

Green foxtail = assay: Test D green foxtail; type: in vivo; settings: Preemergence, 0 to 100 scale
Excerpt: Seeds, tubers, or plant parts of Alexandergrass (Brachiaria plantaginea), bermuda-grass (Cynodon dactylon), common pursiane (Portulaca oleracea), common ragweed (Ambrosia elatior), common groundsel (Senecio vulgaris), dallisgrass (Paspalum dilatatum), goosegrass (Eleusine indica), guineagrass (Panicum maximum), itchgrass (Rottboellia exaltata), Johnson grass (Sorghum halepense), large crabgrass (Digitaria sanguinalis), pitted morningglory (Ipomoea lacunosa), purple nutsedge (Cyperus rotundus), sandbur (Cenchrus echinatus), sourgrass (Trichachne insularis), Spanishneedles (Bidens bipinnata), surinam grass (Brachiaria decumbens) and tall mallow (Malva sylvestris) were planted into greenhouse pots of flats containing greenhouse planting medium. Plant species were grown in separate pots or individual compartments. Preemergence applications were made within one day of planting the seed or plant part.
Test chemicals were formulated in a non-phytotoxic solvent mixture which included a surfactant and applied preemergence to the surface of the pot containing seeds in a sandy loam soil. Untreated control pots and treated pots were placed in the greenhouse for growth and visually evaluated for injury 14 to 21 days after herbicide application. Plant response ratings, summarized in Table C, are based on a 0 to 100 scale where 0 is no injury and 100 is complete control. A dash (−) response means no test result.

pitted morningglory = assay: Test D pitted morningglory; type: in vivo, Ipomoea lacunosa; settings: Preemergence, 0 to 100 scale
How it was run: as §1

sandbur = assay: Test D sandbur; type: in vivo, Cenchrus echinatus; settings: Preemergence, 0 to 100 scale
How it was run: as §1

common groundsel = assay: Test D common groundsel; type: in vivo, Senecio vulgaris; settings: Preemergence, 0 to 100 scale
How it was run: as §1

Johnson grass = assay: Test D Johnson grass; type: in vivo, Sorghum halepense; settings: Preemergence, 0 to 100 scale
How it was run: as §1

common ragweed = assay: Test D common ragweed; type: in vivo, Ambrosia elatior; settings: Preemergence, 0 to 100 scale
How it was run: as §1

Spanishneedles = assay: Test D Spanishneedles; type: in vivo, Bidens bipinnata; settings: Preemergence, 0 to 100 scale
How it was run: as §1

dallisgrass = assay: Test D dallisgrass; type: in vivo, Paspalum dilatatum; settings: Preemergence, 0 to 100 scale
How it was run: as §1

bermuda-grass = assay: Test D bermudagrass; type: in vivo, Cynodon dactylon; settings: Preemergence, 0 to 100 scale
How it was run: as §1

large crabgrass = assay: Test D large crabgrass; type: in vivo, Digitaria sanguinalis; settings: Preemergence, 0 to 100 scale
How it was run: as §1

surinam grass = assay: Test D surinam grass; type: in vivo, Brachiaria decumbens; settings: Preemergence, 0 to 100 scale
How it was run: as §1

tall mallow = assay: Test D tall mallow; type: in vivo, Malva sylvestris; settings: Preemergence, 0 to 100 scale
How it was run: as §1

itchgrass = assay: Test D itchgrass; type: in vivo, Rottboellia exaltata; settings: Preemergence, 0 to 100 scale
How it was run: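 Scoring used a 0–100 visual injury scale, with 0 meaning no effect and 100 complete control, assessed 14–21 days after application alongside untreated pots. Preemergence treatments went onto sandy loam surfaces of separately potted seeds within a day of sowing.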

purple nutsedge = assay: Test D purple nutsedge; type: in vivo, Cyperus rotundus; settings: Preemergence, 0 to 100 scale
How it was run: as §1

guineagrass = assay: Test D guineagrass; type: in vivo, Panicum maximum; settings: Preemergence, 0 to 100 scale
How it was run: as §1

[1] = Rate 16 g/ha, 0 no injury, 100 complete control
[2] = Rate 32 g/ha, 0 no injury, 100 complete control
[3] = Rate 64 g/ha, 0 no injury, 100 complete control
[4] = Rate 125 g/ha, 0 no injury, 100 complete control
[5] = Rate 64 g/ha, Preemergence; 0 to 100 scale, 0 no injury, 100 complete control
[6] = Rate 125 g/ha, Preemergence; 0 to 100 scale, 0 no injury, 100 complete control
[7] = Rate 500 g/ha, Preemergence; 0 to 100 scale
[8] = Rate 500 g/ha; Preemergence; 0 to 100 scale

Compound: CC(C)N(C(=O)n1oc(=O)n(C2CCCCC2)c1=O)c1ccc(F)cc1F [Compound 115]
- Plant response rating, Alexandergrass (Alexandergrass; [1]): 0
- Plant response rating, Alexandergrass (Alexandergrass; [2]): 20
- Plant response rating, Alexandergrass (Alexandergrass; [3]): 50
- Plant response rating, Alexandergrass (Alexandergrass; [4]): 75
- Plant response rating, Alexandergrass (Alexandergrass; Rate 250 g/ha): 85
- Plant response rating, Alexandergrass (Alexandergrass; Rate 500 g/ha): 100
- Plant response rating, C. purslane (common pursiane; Rate 16 g/ha; Preemergence; 0 to 100 scale, 0 no injury, 100 complete control): 0
- Plant response rating, C. purslane (common pursiane; Rate 32 g/ha; Preemergence; 0 to 100 scale, 0 no injury, 100 complete control): 0
- Plant response rating, C. purslane (common pursiane; [5]): 0
- Plant response rating, C. purslane (common pursiane; [6]): 0
- Plant response rating, C. purslane (common pursiane; Rate 250 g/ha; Preemergence; 0 to 100 scale): 0
- Plant response rating, C. purslane (common pursiane; [7]): 20
- Plant response rating, C. purslane (common pursiane; [8]): 0
- Plant response rating, Green foxtail (Green foxtail; Rate 250 g/ha): 100
- Plant response rating, Green foxtail (Green foxtail; Rate 500 g/ha): 100
- Plant response rating, P. morninglory (pitted morningglory; [1]): 0
- Plant response rating, P. morninglory (pitted morningglory; [2]): 0
- Plant response rating, P. morninglory (pitted morningglory; [3]): 0
- Plant response rating, P. morninglory (pitted morningglory; [4]): 0
- Plant response rating, P. morninglory (pitted morningglory; Rate 250 g/ha): 0
- Plant response rating, P. morninglory (pitted morningglory; Rate 500 g/ha): 10
- Plant response rating, Sandbur (sandbur; [1]): 0
- Plant response rating, Sandbur (sandbur; [2]): 0
- Sandbur plant response rating (sandbur; [3]): 0
- Sandbur plant response rating (sandbur; [4]): 40
- Plant response rating, Sandbur (sandbur; Rate 250 g/ha): 50
- Plant response rating, Sandbur (sandbur; Rate 500 g/ha): 100
- Plant response rating, Com. groundsel (common groundsel; [1]): 0
- Plant response rating, Com. groundsel (common groundsel; [2]): 0
- Plant response rating, Com. groundsel (common groundsel; [3]): 10
- Plant response rating, Com. groundsel (common groundsel; [4]): 10
- Plant response rating, Com. groundsel (common groundsel; Rate 250 g/ha): 10
- Plant response rating, Com. groundsel (common groundsel; Rate 500 g/ha): 98
- Plant response rating Johnsongrass (Johnson grass; [1]): 0
- Plant response rating Johnsongrass (Johnson grass; [2]): 40
- Plant response rating Johnsongrass (Johnson grass; [3]): 40
- Plant response rating Johnsongrass (Johnson grass; [4]): 60
- Plant response rating Johnsongrass (Johnson grass; Rate 250 g/ha): 75
- Plant response rating Johnsongrass (Johnson grass; Rate 500 g/ha): 90
- Plant response rating, C. ragweed (common ragweed; [1]): 0
- Plant response rating, C. ragweed (common ragweed; [2]): 0
- Plant response rating, C. ragweed (common ragweed; [3]): 0
- Plant response rating, C. ragweed (common ragweed; [4]): 10
- Plant response rating, C. ragweed (common ragweed; Rate 250 g/ha): 20
- Plant response rating, C. ragweed (common ragweed; Rate 500 g/ha): 20
- Plant response rating, Spanishneedles (Spanishneedles; [1]): 0
- Plant response rating, Spanishneedles (Spanishneedles; [2]): 0
- Spanishneedles plant response rating (Spanishneedles; [3]): 0
- Spanishneedles plant response rating (Spanishneedles; [4]): 0
- Plant response rating, Spanishneedles (Spanishneedles; Rate 500 g/ha): 10
- Plant response rating, Dallisgrass (dallisgrass; [1]): 0
- Plant response rating, Dallisgrass (dallisgrass; [2]): 75
- Plant response rating, Dallisgrass (dallisgrass; [3]): 75
- Plant response rating, Dallisgrass (dallisgrass; [4]): 98
- Plant response rating, Dallisgrass (dallisgrass; Rate 250 g/ha): 98
- Plant response rating, Dallisgrass (dallisgrass; Rate 500 g/ha): 100
- Plant response rating, Bermudagrass (bermuda-grass; [1]): 75
- Plant response rating, Bermudagrass (bermuda-grass; [2]): 98
- Plant response rating, Bermudagrass (bermuda-grass; [3]): 98
- Plant response rating, Bermudagrass (bermuda-grass; [4]): 100
- Plant response rating, Bermudagrass (bermuda-grass; Rate 250 g/ha): 100
- Plant response rating, Bermudagrass (bermuda-grass; Rate 500 g/ha): 100
- Plant response rating Large crabgrass (large crabgrass; [1]): 75
- Plant response rating Large crabgrass (large crabgrass; [2]): 75
- Plant response rating Large crabgrass (large crabgrass; [3]): 85
- Plant response rating Large crabgrass (large crabgrass; [4]): 100
- Plant response rating Large crabgrass (large crabgrass; Rate 250 g/ha): 100
- Plant response rating Large crabgrass (large crabgrass; Rate 500 g/ha): 100
- Plant response rating, Surinam grass (surinam grass; [1]): 0
- Plant response rating, Surinam grass (surinam grass; [2]): 20
- Surinam grass plant response rating (surinam grass; [3]): 65
- Surinam grass plant response rating (surinam grass; [4]): 75
- Plant response rating, Surinam grass (surinam grass; Rate 250 g/ha): 75
- Plant response rating, Surinam grass (surinam grass; Rate 500 g/ha): 85
- Plant response rating, Tall Mallow (tall mallow; [1]): 0
- Plant response rating, Tall Mallow (tall mallow; [2]): 0
- Tall Mallow plant response rating (tall mallow; [3]): 0
- Tall Mallow plant response rating (tall mallow; [4]): 0
- Plant response rating, Tall Mallow (tall mallow; Rate 250 g/ha): 0
- Plant response rating, Tall Mallow (tall mallow; Rate 500 g/ha): 0
- Plant response rating, Itchgrass (itchgrass; [1]): 40
- Plant response rating, Itchgrass (itchgrass; [2]): 40
- Plant response rating, Itchgrass (itchgrass; [3]): 40
- Plant response rating, Itchgrass (itchgrass; [4]): 50
- Plant response rating, Itchgrass (itchgrass; Rate 250 g/ha): 50
- Plant response rating, Itchgrass (itchgrass; Rate 500 g/ha): 50
- Plant response rating, Purple nutsedge (purple nutsedge; [1]): 0
- Plant response rating, Purple nutsedge (purple nutsedge; [2]): 0
- Purple nutsedge plant response rating (purple nutsedge; [3]): 0
- Purple nutsedge plant response rating (purple nutsedge; [4]): 0
- Plant response rating, Purple nutsedge (purple nutsedge; Rate 250 g/ha): 0
- Plant response rating, Purple nutsedge (purple nutsedge; Rate 500 g/ha): 0
- Plant response rating, Guineagrass (guineagrass; [1]): 0
- Plant response rating, Guineagrass (guineagrass; [2]): 30
- Plant response rating, Guineagrass (guineagrass; [3]): 30
- Plant response rating, Guineagrass (guineagrass; [4]): 85
- Plant response rating, Guineagrass (guineagrass; Rate 250 g/ha): 98
- Plant response rating, Guineagrass (guineagrass; Rate 500 g/ha): 100

Compound: CCn1c(=O)on(C(=O)N(c2ccccc2)C(C)C)c1=O [Compound 117]
- Plant response rating, Alexandergrass (Alexandergrass; [3]): 90
- Plant response rating, Alexandergrass (Alexandergrass; [4]): 90
- Plant response rating, Alexandergrass (Alexandergrass; Rate 500 g/ha): 98
- Plant response rating, C. purslane (common pursiane; [5]): 0
- Plant response rating, C. purslane (common pursiane; [6]): 0
- Plant response rating, C. purslane (common pursiane; [7]): 65
- Plant response rating, C. purslane (common pursiane; [8]): 0
- Plant response rating, Green foxtail (Green foxtail; Rate 500 g/ha): 100
- Plant response rating, P. morninglory (pitted morningglory; [3]): 0
- Plant response rating, P. morninglory (pitted morningglory; [4]): 20
- Plant response rating, P. morninglory (pitted morningglory; Rate 500 g/ha): 40
- Sandbur plant response rating (sandbur; [3]): 0
- Sandbur plant response rating (sandbur; [4]): 0
- Plant response rating, Sandbur (sandbur; Rate 500 g/ha): 100
- Plant response rating, Com. groundsel (common groundsel; [3]): 0
- Plant response rating, Com. groundsel (common groundsel; [4]): 75
- Plant response rating, Com. groundsel (common groundsel; Rate 500 g/ha): 100
- Plant response rating Johnsongrass (Johnson grass; [3]): 90
- Plant response rating Johnsongrass (Johnson grass; [4]): 90
- Plant response rating Johnsongrass (Johnson grass; Rate 500 g/ha): 100
- Plant response rating, C. ragweed (common ragweed; [3]): 0
- Plant response rating, C. ragweed (common ragweed; [4]): 0
- Plant response rating, C. ragweed (common ragweed; Rate 500 g/ha): 65
- Spanishneedles plant response rating (Spanishneedles; [3]): 0
- Spanishneedles plant response rating (Spanishneedles; [4]): 0
- Plant response rating, Spanishneedles (Spanishneedles; Rate 500 g/ha): 0
- Plant response rating, Dallisgrass (dallisgrass; [3]): 85
- Plant response rating, Dallisgrass (dallisgrass; [4]): 95
- Plant response rating, Dallisgrass (dallisgrass; Rate 500 g/ha): 100
- Plant response rating, Bermudagrass (bermuda-grass; [3]): 98
- Plant response rating, Bermudagrass (bermuda-grass; [4]): 100
- Plant response rating, Bermudagrass (bermuda-grass; Rate 500 g/ha): 100
- Plant response rating Large crabgrass (large crabgrass; [3]): 98
- Plant response rating Large crabgrass (large crabgrass; [4]): 98
- Plant response rating Large crabgrass (large crabgrass; Rate 500 g/ha): 100
- Surinam grass plant response rating (surinam grass; [3]): 80
- Surinam grass plant response rating (surinam grass; [4]): 100
- Plant response rating, Surinam grass (surinam grass; Rate 500 g/ha): 100
- Tall Mallow plant response rating (tall mallow; [3]): 40
- Tall Mallow plant response rating (tall mallow; [4]): 65
- Plant response rating, Tall Mallow (tall mallow; Rate 500 g/ha): 100
- Plant response rating, Itchgrass (itchgrass; [3]): 40
- Plant response rating, Itchgrass (itchgrass; [4]): 75
- Plant response rating, Itchgrass (itchgrass; Rate 500 g/ha): 100
- Purple nutsedge plant response rating (purple nutsedge; [3]): 0
- Purple nutsedge plant response rating (purple nutsedge; [4]): 0
- Plant response rating, Purple nutsedge (purple nutsedge; Rate 500 g/ha): 100
- Plant response rating, Guineagrass (guineagrass; [3]): 100
- Plant response rating, Guineagrass (guineagrass; [4]): 100
- Plant response rating, Guineagrass (guineagrass; Rate 500 g/ha): 100
